Where “and” joins values, the source holds several entries; their conditions need not be identical. Equal values may be shown once. Read-outs that look alike come from different tables or passages of the source.
Tests used:
WBCs [1] = assay: Labelling (staining) of cells with labelled molecules; format: cell-based
Description: (§1) As shown in the examples, a compound for use according to the invention, wherein the compound comprises a label moiety, is contacted with a cell. As labelling is preferably done with viable or potentially viable cells, the cells are typically present in an aqueous solution, which is preferably buffered and/or contains nutrients, e.g. the cells are suspended in PBS. The labeled compound for use according to the invention may be added to the cells, e.g. in form of a solution, e.g. as aqueous solution by methods known in the art, as pipetting.

Epithelial cells = assay: as above; format: cell-based
Description: as §1

WBCs [2] = assay: Recovery rate of cells after immobilization on streptavidin (SA) plate; format: cell-based; details: for Remarks (staining): staining of the cells by the molecule
Method: X=hydrophobic moiety, […]=fluorescein In the following experiment, the recovery rate of cells was determined.

white blood cells (WBCs) = details: 300,000 WBCs/well
Method: In particular, the performance of a single cholesterol-molecule and different dual-linker molecules (i.e. containing two hydrophobic moieties) was tested. In detail, immobilization of white blood cells (WBCs) on a Streptavidin-coated surface using different linker molecules was tested on a 12-well plate: 300,000 WBCs/well. This was followed by the measurement of the cell recovery rate after immobilization and washing of the cells using the Cellavista instrument (10×Nuclei Operator s9s5).

WBC [3] = tested on: WBC
Method: 4× determination. Row A: 200 μl PBS introduced, 1 nmol of compound added thereto respectively, mixed, incubated about 30 min, washed 2×PBS, 800 μl PBS introduced, 300.000 WBC (untreated) added. Row B: 800 μl PBS introduced, 300.000 WBC (untreated) added. Row C: 10×10^6 WBC in 1 ml with 10 nmol compound of invention 10 min incubated, 800 μl PBS/Well introduced, 300.000 treated WBC respectively. The first MTP plate washed after 30 min 2× with PBS, overlayed with Höchst and incubated for 15 min.>Cellavista (Operator s9s5) measured. The second plate was measured after 90 min. The third plate was measured after 150 min.
The experiments were performed for different incubation times, as shown below:
As starting material 5′-(Cholesteryl-TEG)2-PEG2000-Fluos-Biotin_TEG-3′ INVERS (14530 pmol/μl) (Internal Reference No.: 29.891250), and a streptavidin treated MTP (Microcoat), 12 Well plate were used.
Erythrocyte lysis was performed as follows:
EDTA-whole blood 59.423 6.400 WBC/μl (Ambulanz Roche)
lysis buffer: 100 mM NH4Cl+5 mM Hepes+0.5 mM KHCO3+0.1 mM EDTA-K
Ca 1×8 ml whole blood filled in 50 ml Falcon tube with lysis buffer, incubate at room temperature for 10 min
15 min at 250 g centrifugated, pellet resuspended by pipetting in and out in lysis buffer; filled to 50 ml with lysis buffer
15 min 250 g centrifugated, pellet resuspended with PBS, filled to 50 ml with PBS, 15 min 250 g centrifugated, filled to 50 ml with PBS
The design of the experiment on the plate is explained below (see FIG. 2):
Row A: 200 μl PBS introduced, 1 nmol of compound added thereto respectively, mixed, incubated about 30 min, washed 2× PBS, • 800 μl PBS introduced, 300.000 WBC (untreated) added.
Row B: 800 μl PBS introduced, 300.000 WBC (untreated) added.

WBC [4] = assay: WBC recovery rate after centrifugation (stabilization of cells); format: cell-based, human; details: for WBC recovery rate after centrifugation: dependence on molecule concentration: Centrifugation 10 min; for performance in WBC recovery rate after centrifugation (ranking): Centrifugation 20 min, 10 min, 1 h
Method: (§2) Centrifugation characteristics: 10 min, 300×g.
as §2
The respective left, middle and right columns per assay represent different Experimenters 1, 2 and 3. […] Centrifugation characteristics: 10 min, 300×g. Molecule: Cholesteryl-TEG-Cholesteryl-TEG-(SpacerC18)7-Fluos-Biotin-TEG.
(§3) Following molecules were tested: 1234: 5′-(Cholesteryl-TEG)2-Spacer C18-dT-Biotin-TEG-3′; 1248: 3′-(Cholesteryl-TEG)2-PEG2000-Fluos-Biotin-TEG-5′ INVERS; 1254: 3′-(Cholesteryl-TEG)2-SpacerC18-Fluos-Biotin-TEG-5′ INVERS; 1255: 3′-(Myristic acid)2-PEG2000-dT-Biotin-TEG-5′ INVERS. […] Centrifugation characteristics: 20 min, 300×g. Respective left column: 10 min incubation with molecule. Respective middle column: 1 h min incubation with molecule. Respective right column: 2 h incubation with molecule.
Following molecules were tested: 1255: 3′-(Myristic acid)2-PEG2000-dT-Biotin-TEG-5′ INVERS; 1234: 5′-(Cholesteryl-TEG)2-Spacer C18-dT-Biotin-TEG-3′; 1248: 3′-(Cholesteryl-TEG)2-PEG2000-Fluos-Biotin-TEG-5′ INVERS; 1254: 3′-(Cholesteryl-TEG)2-SpacerC18-Fluos-Biotin-TEG-5′ INVERS. […] Centrifugation characteristics: 20 min, 500×g. Respective left column: 10 min incubation with molecule. Respective middle column: 1 h min incubation with molecule. Respective right column: 3 h incubation with molecule.
as §3, with “tested: 1255: 3′-(Myristic acid)2-PEG2000-dT-Biotin-TEG-5′ INVERS;” for “tested:”, “3′-(Cholesteryl-TEG)2-SpacerC18-Fluos-Biotin-TEG-5′” for “3′-(Cholesteryl-TEG)2-SpacerC18-Fluos-Biotin-TEG-5′ INVERS; 1255: 3′-(Myristic acid)2-PEG2000-dT-Biotin-TEG-5′”, “1000×g.” for “300×g.”
Stabilization is typically determined on a population of cells, e.g. 2, 10, 100 or more cells, and the respective mean viability of the cell populations are compared. […] Viability may be determined by determining cell morphology, cell viability and/or cell recovery. Methods for determining cell morphology, cell viability and cell recovery are known in the art. […] For determining cell morphology, visual inspection by microscopy may be performed. For determining cell viability, a cell viability test using WST-1 proliferation kit (RAS) may be performed.

MDA-MB468 = assay: Labelling (staining) of cells with labelled molecules; format: cell-based
Description: as §1

U937 = assay: as above; format: cell-based
Description: as §1

[5] = Sample 1, compound concentration: 1 nmol/10e6 WBCs
[6] = Sample 1, first table, concentration not given
[7] = Sample 2, Compound Concentration: 100 pmol/10e6 WBCs
[8] = Sample 2, Compound Concentration: 1 nmol/10e6 WBCs
[9] = 300×g, 2 h incubation with molecule
[10] = 500×g, 3 h incubation with molecule

## Sulfo-JA133-phenylboronic acid [BMO: 15.000078]
WBCs [1]
  staining of cells by labelled molecule: ✓ not all
Epithelial cells
  staining of cells by labelled molecule: ✓

## 5′-Myristic acid-SpacerC9-Myristic acid-PEG2000-Fluos-BiotinTEG-3′ [BMO 29.891197]
WBCs [2]
  Remarks (staining): weak

## 5′-CholesterylTEG-CholesterylTEG-PEG2000-Fluos-BiotinTEG-3′ [BMO 29.891180]
WBCs [2]
  Remarks (staining): strong

## CCCCCCCCCCCCCCCCCCCCCCN1/C(=C/C=C/c2oc3ccccc3[n+]2CCC)Oc2ccccc21.[I-] [PKH2]
WBCs [1]
  staining of cells by labelled molecule: ✓
Epithelial cells
  staining of cells by labelled molecule: ✓ not all

## 5′-Myristic acid-Myristic acid-(SpacerC18)7-Fluos-BiotinTEG-3′ [BMO 29.891214]
WBCs [2]
  Remarks (staining): strong

## 5′-(Cholesteryl-TEG)2-Spacer C12-dT-Biotin_TEG-3′ INVERS [29.891253]
White blood cells (WBCs); [5]
  cell count per well: 218861 and 221471 and 208802
White blood cells (WBCs); [6]
  cell count per well: 105061 and 128195 and 139678
White blood cells (WBCs); [7]
  Mean (cell count): 187757.67
  cell count per well: 178919 and 197130 and 187224
White blood cells (WBCs); [8]
  Mean (cell count): 237052.33
  cell count per well: 239105 and 240632 and 231420

## 5′-(Cholesteryl-TEG)2-PEG2000-Fluos-Biotin_TEG-3′ INVERS [29.891250]
WBC [3]; 30 min, WBC treated
  MW (mean WBC count; target: 300.000 WBC): 231829.75
WBC [3]; 30 min, WBC treated: molecule + cells
  WBC recovery rate [%] (Mean %): 77.28%
WBC [3]; 30 min, Well treated
  MW (mean WBC count; target: 300.000 WBC): 64909
WBC [3]; 30 min, well treated: molecule bound to surface
  WBC recovery rate [%] (Mean %): 21.64%
WBC [3]; 90 min, WBC treated
  MW (mean WBC count; target: 300.000 WBC): 249346.25
WBC [3]; 90 min, WBC treated: molecule + cells, listed as molecule useful in methods of invention
  WBC recovery rate [%] (Mean %): 83.12% and 83.1%
WBC [3]; 90 min, Well treated
  MW (mean WBC count; target: 300.000 WBC): 142865
WBC [3]; 90 min, well treated: molecule bound to surface, listed as molecule useful in methods of invention
  WBC recovery rate [%] (Mean %): 47.62% and 47.6%
WBC [3]; 120 min, WBC treated
  MW (mean WBC count; target: 300.000 WBC): 258692.75
WBC [3]; 120 min, WBC treated: molecule + cells
  WBC recovery rate [%] (Mean %): 86.23%
WBC [3]; 120 min, Well treated
  MW (mean WBC count; target: 300.000 WBC): 171062.75
WBC [3]; 120 min, well treated: molecule bound to surface
  WBC recovery rate [%] (Mean %): 57.02%

## Biotin-PEG-Lysin-(C18)2 [HH1755]
WBC [4]; 300×g
  WBC recovery rate after centrifugation: dependence on molecule concentration: The higher the concentration of the molecule, the higher the cell recovery rate after centrifugation

## Biotin-PEG-Lysin-(C18)2 [HH1749]
WBC [4]; 300×g
  WBC recovery rate after centrifugation: dependence on molecule concentration: The higher the concentration of the molecule, the higher the cell recovery rate after centrifugation

## 5′-(Cholesteryl-TEG)2-Spacer C18-Fluos-Biotin_TEG-3′ INVERS [29.891254]
White blood cells (WBCs); [5]
  cell count per well: 244649 and 234262 and 260760
White blood cells (WBCs); [6]
  cell count per well: 157660 and 190148 and 170850
White blood cells (WBCs); [7]
  Mean (cell count): 197067.00
  cell count per well: 205917 and 185100 and 200184
White blood cells (WBCs); [8]
  Mean (cell count): 245376.00
  cell count per well: 247428 and 244396 and 244304
WBC [4]; [9]
  performance in WBC recovery rate after centrifugation (ranking): followed by compound 1255 and 1254
WBC [4]; [10]
  performance in WBC recovery rate after centrifugation (ranking): followed by molecule 1255 and 1254

## 5′-CholesterylTEG-CholesterylTEG-(SpacerC18)7-Fluos-BiotinTEG-3′ [BMO 29.891222]
WBC [4]; 300×g
  WBC recovery rate after centrifugation: dependence on molecule concentration: the higher the molecule concentration, the higher the cell recovery rate after centrifugation
WBC [4]; 300×g, listed as A
  WBC recovery rate after centrifugation: dependence on molecule concentration: The higher the molecule concentration, the higher the cell recovery rate after centrifugation
WBC [4]; Experimenters 1, 2 and 3, centrifugation 10 min, 300×g
  cell stabilization: dependence on the experimenter: independent on the experimenter

## 5′-alphaTocopherolTEG-PEG2000-Fluos-3′ [BMO 29.891131]
MDA-MB468
  staining of cells by labelled molecule: ✓
U937
  staining of cells by labelled molecule: ✓
WBCs [1]
  staining of cells by labelled molecule: ✓ not all
Epithelial cells
  staining of cells by labelled molecule: ✓

## 5′-Cholesteryl-TEG-PEG2000-Fluos-3′ [BMO 29.891132]
MDA-MB468
  staining of cells by labelled molecule: ✓
U937
  staining of cells by labelled molecule: ✓
WBCs [1]
  staining of cells by labelled molecule: ✓ not all
Epithelial cells
  staining of cells by labelled molecule: ✓

## Biotin-PEG-Lys-(C14)2 [15.260268]
WBCs [2]; 1.77 nmol/10e6 Cells
  Recovery Rate: 85.72%

## 3′-(Myristic acid)2-PEG2000-dT-Biotin-TEG-5′ INVERS [compound 1255]
WBC [4]; [9]
  performance in WBC recovery rate after centrifugation (ranking): followed by compound 1255 and 1254
WBC [4]; [10]
  performance in WBC recovery rate after centrifugation (ranking): followed by molecule 1255 and 1254

## 5′-Myristic acid-Myristic acid-SpacerC18-Fluos-BiotinTEG-3′ [BMO 29.891213]
WBCs [2]
  Remarks (staining): strong

## 5′-Myristic acid-Myristic acid-PEG2000-Fluos-BiotinTEG-3′ [BMO 29.891194]
WBCs [2]
  Remarks (staining): weak and stronger

## 5′-(Cholesterol-TEG)1-Doubler-dT-Biotin-3′ [29.891272]
White blood cells (WBCs); [5]
  cell count per well: 199973 and 220701 and 228481
White blood cells (WBCs); [6]
  cell count per well: 147132 and 179643 and 181620
White blood cells (WBCs); [7]
  Mean (cell count): 186316.33
  cell count per well: 161504 and 201424 and 196021
White blood cells (WBCs); [8]
  Mean (cell count): 247418.33
  cell count per well: 241232 and 254894 and 246129

## 5′-(Cholesteryl-TEG)2-Spacer C18-dT-Biotin-TEG-3′ [compound 1234]
WBC [4]; [9]
  performance in WBC recovery rate after centrifugation (ranking): best performance
WBC [4]; [10]
  performance in WBC recovery rate after centrifugation (ranking): best performance

## Biotin-PEG-Lysin-(C18)2 [HH1750]
WBC [4]; 300×g
  WBC recovery rate after centrifugation: dependence on molecule concentration: The higher the concentration of the molecule, the higher the cell recovery rate after centrifugation
